Laboratory results as given in paper PMC5218480 (PLoS ONE, 2017).

Tested on: MV-4-11 cells
Assay: Gene expression microarray analysis (Affymetrix PrimeView) and GSEA
Format: cell-based, human
Design: RFU PODN (11730768_x_at) / Fold change /veh PODN (11730768_x_at) / RFU LINC00158 (11744669_a_at) / Fold change /veh LINC00158 (11744669_a_at) / RFU DUSP10 (11751237_a_at) / Fold change /veh DUSP10 (11751237_a_at) / RFU ID3 (11757404_x_at) / Fold change /veh ID3 (11757404_x_at) / RFU PLEKHG5 (11737974_s_at) / Fold change /veh PLEKHG5 (11737974_s_at) / RFU LRRC4B (11730491_at) / Fold change /veh LRRC4B (11730491_at) / RFU GIMAP4 (11747438_a_at) / Fold change /veh GIMAP4 (11747438_a_at) / RFU KRT8 (11758183_x_at) / Fold change /veh KRT8 (11758183_x_at) / RFU CNN1 (11734310_a_at) / Fold change /veh CNN1 (11734310_a_at) / RFU VPS37D (11726825_at) / Fold change /veh VPS37D (11726825_at) / RFU C10orf10 (11716522_x_at) / Fold change /veh C10orf10 (11716522_x_at) / RFU KIR2DL2 /// KIR2DL4 /// KIR2DL5A /// KIR2DL5B /// KIR2DS1 /// KIR2DS2 /// KIR2DS3 /// KIR2DS4 /// KIR3DL3 /// KIR3DL3 /// KIR3DS1 (11738374_at) / Fold change /veh KIR2DL2 /// KIR2DL4 /// KIR2DL5A /// KIR2DL5B /// KIR2DS1 /// KIR2DS2 /// KIR2DS3 /// KIR2DS4 /// KIR3DL3 /// KIR3DL3 /// KIR3DS1 (11738374_at) / RFU C1QL1 (11718748_at) / Fold change /veh C1QL1 (11718748_at) / RFU TMPRSS4 (11747572_a_at) / Fold change /veh TMPRSS4 (11747572_a_at) / RFU HAMP (11756126_x_at) / Fold change /veh HAMP (11756126_x_at) / RFU RNFT2 (11725882_a_at) / Fold change /veh RNFT2 (11725882_a_at) / RFU NR4A2 (11747474_a_at) / Fold change /veh NR4A2 (11747474_a_at) / RFU ABCC12 (11746883_a_at) / Fold change /veh ABCC12 (11746883_a_at) / RFU TMEM136 (11760407_x_at) / Fold change /veh TMEM136 (11760407_x_at) / RFU CLDN22 /// WWC2 (11732394_at) / Fold change /veh CLDN22 /// WWC2 (11732394_at) / RFU HLA-DPB1 (11760878_x_at) / Fold change /veh HLA-DPB1 (11760878_x_at) / RFU SPINT1 (11716480_a_at) / Fold change /veh SPINT1 (11716480_a_at) / RFU GAP43 (11754022_s_at) / Fold change /veh GAP43 (11754022_s_at) / RFU A4GNT (11735810_at) / Fold change /veh A4GNT (11735810_at) / RFU PRB3 (11715151_x_at) / Fold change /veh PRB3 (11715151_x_at) / RFU TUBB4B (11761932_at) / Fold change /veh TUBB4B (11761932_at) / RFU CAPN14 (11732068_a_at) / Fold change /veh CAPN14 (11732068_a_at) / RFU TMCC2 (11721928_a_at) / Fold change /veh TMCC2 (11721928_a_at) / RFU IRGQ (11745062_a_at) / Fold change /veh IRGQ (11745062_a_at) / RFU FAM174B (11720279_a_at) / Fold change /veh FAM174B (11720279_a_at) / RFU TMPRSS4 (11748680_a_at) / Fold change /veh TMPRSS4 (11748680_a_at) / RFU FAM212B (11763350_a_at) / Fold change /veh FAM212B (11763350_a_at) / RFU PLEKHG5 (11743358_a_at) / Fold change /veh PLEKHG5 (11743358_a_at) / RFU ZSCAN30 (11745921_a_at) / Fold change /veh ZSCAN30 (11745921_a_at) / RFU CMKLR1 (11741424_a_at) / Fold change /veh CMKLR1 (11741424_a_at) / RFU LOC101060620 /// MAPK8IP1 (11723275_at) / Fold change /veh LOC101060620 /// MAPK8IP1 (11723275_at) / RFU SPTSSB (11747773_x_at) / Fold change /veh SPTSSB (11747773_x_at) / RFU PRSS12 (11739890_at) / Fold change /veh PRSS12 (11739890_at) / RFU BIN1 (11741810_x_at) / Fold change /veh BIN1 (11741810_x_at) / RFU WNT11 (11732464_a_at) / Fold change /veh WNT11 (11732464_a_at) / RFU C10orf10 (11716521_a_at) / Fold change /veh C10orf10 (11716521_a_at) / RFU C5orf56 (11738089_at) / Fold change /veh C5orf56 (11738089_at) / RFU CYB561 (11721691_x_at) / Fold change /veh CYB561 (11721691_x_at) / RFU ANKRD19P (11752326_a_at) / Fold change /veh ANKRD19P (11752326_a_at) / RFU OR2T12 /// OR2T33 /// OR2T8 (11738714_s_at) / Fold change /veh OR2T12 /// OR2T33 /// OR2T8 (11738714_s_at) / RFU VCAN (11748164_a_at) / Fold change /veh VCAN (11748164_a_at) / RFU JSRP1 (11732532_at) / Fold change /veh JSRP1 (11732532_at) / RFU KRTAP10-11 (11738290_x_at) / Fold change /veh KRTAP10-11 (11738290_x_at) / RFU MYO3A (11730013_a_at) / Fold change /veh MYO3A (11730013_a_at) / RFU EBF3 (11725865_a_at) / Fold change /veh EBF3 (11725865_a_at) / RFU CAMK2N1 (11719241_x_at) / Fold change /veh CAMK2N1 (11719241_x_at) / RFU C5orf56 (11738088_a_at) / Fold change /veh C5orf56 (11738088_a_at) / RFU OLFML3 (11715873_a_at) / Fold change /veh OLFML3 (11715873_a_at) / RFU LOC100653217 /// NTM (11731650_a_at) / Fold change /veh LOC100653217 /// NTM (11731650_a_at) / RFU MAPK11 (11762145_a_at) / Fold change /veh MAPK11 (11762145_a_at) / RFU FIZ1 (11724087_x_at) / Fold change /veh FIZ1 (11724087_x_at) / RFU OASL (11726364_x_at) / Fold change /veh OASL (11726364_x_at) / RFU SOX15 (11748057_x_at) / Fold change /veh SOX15 (11748057_x_at) / RFU CD79A (11719716_a_at) / Fold change /veh CD79A (11719716_a_at) / RFU HIST1H1D (11736915_at) / Fold change /veh HIST1H1D (11736915_at) / RFU CASKIN2 (11723855_a_at) / Fold change /veh CASKIN2 (11723855_a_at) / RFU LOC730098 (11760151_x_at) / Fold change /veh LOC730098 (11760151_x_at) / RFU OR4N2 (11742367_at) / Fold change /veh OR4N2 (11742367_at) / RFU PRRT2 (11749266_a_at) / Fold change /veh PRRT2 (11749266_a_at) / RFU SNX32 (11753110_a_at) / Fold change /veh SNX32 (11753110_a_at) / RFU CDHR5 (11726645_a_at) / Fold change /veh CDHR5 (11726645_a_at) / RFU RCAN1 (11760418_a_at) / Fold change /veh RCAN1 (11760418_a_at) / RFU FAM167A (11723789_a_at) / Fold change /veh FAM167A (11723789_a_at) / RFU FAM26E (11764081_at) / Fold change /veh FAM26E (11764081_at) / RFU ISYNA1 (11749810_s_at) / Fold change /veh ISYNA1 (11749810_s_at) / RFU ACY1 (11761880_at) / Fold change /veh ACY1 (11761880_at) / RFU 11764098_at / Fold change /veh 11764098_at / RFU SAMD14 (11745864_x_at) / Fold change /veh SAMD14 (11745864_x_at) / RFU NPB (11741838_a_at) / Fold change /veh NPB (11741838_a_at) / RFU TMPRSS6 (11731388_a_at) / Fold change /veh TMPRSS6 (11731388_a_at) / RFU KRTAP10-2 (11738614_at) / Fold change /veh KRTAP10-2 (11738614_at) / RFU ARHGAP8 /// PRR5-ARHGAP8 (11727945_x_at) / Fold change /veh ARHGAP8 /// PRR5-ARHGAP8 (11727945_x_at) / RFU KRTAP5-7 /// NADSYN1 (11734609_at) / Fold change /veh KRTAP5-7 /// NADSYN1 (11734609_at) / RFU RASL12 (11751679_a_at) / Fold change /veh RASL12 (11751679_a_at) / RFU CDKN2B (11736163_a_at) / Fold change /veh CDKN2B (11736163_a_at) / RFU PRF1 (11729649_at) / Fold change /veh PRF1 (11729649_at) / RFU, ZNF638 /// ZNF638-IT1 / Fold change vs veh, ZNF638 /// ZNF638-IT1 / RFU, PANK3 / Fold change vs veh, PANK3 / RFU, SH3YL1 / Fold change vs veh, SH3YL1 / RFU, ZEB2 / Fold change vs veh, ZEB2 / RFU, NRIP1 / Fold change vs veh, NRIP1 / RFU, PTTG1IP / Fold change vs veh, PTTG1IP / RFU, CAPN2 / Fold change vs veh, CAPN2 / RFU, MED14 / Fold change vs veh, MED14 / RFU, SNORA58 / Fold change vs veh, SNORA58 / RFU, C1orf63 / Fold change vs veh, C1orf63 / RFU, LRRFIP1 / Fold change vs veh, LRRFIP1 / RFU, NDUFAF7 / Fold change vs veh, NDUFAF7 / RFU, SLC12A2 / Fold change vs veh, SLC12A2 / RFU, IBTK / Fold change vs veh, IBTK / RFU, ESF1 / Fold change vs veh, ESF1 / Fold change vs veh, TMEM50B / RFU, TAOK1 / Fold change vs veh, TAOK1 / RFU, ACBD3 / Fold change vs veh, ACBD3 / RFU, TMA16 / Fold change vs veh, TMA16 / RFU, RWDD3 / Fold change vs veh, RWDD3 / RFU, BCAT1 / Fold change vs veh, BCAT1 / RFU, EDEM3 / Fold change vs veh, EDEM3 / RFU, TMEM33 / Fold change vs veh, TMEM33 / RFU, WDR75 / Fold change vs veh, WDR75 / RFU, AHCTF1 / Fold change vs veh, AHCTF1 / RFU, TFRC / Fold change vs veh, TFRC / RFU, ZDHHC17 / Fold change vs veh, ZDHHC17 / RFU, NOM1 / Fold change vs veh, NOM1 / RFU, ARL8B / Fold change vs veh, ARL8B / RFU, ZBTB11 / Fold change vs veh, ZBTB11 / RFU, TAMM41 / Fold change vs veh, TAMM41 / RFU, KIAA1704 /// LOC100996395 / Fold change vs veh, KIAA1704 /// LOC100996395 / RFU, ING1 / Fold change vs veh, ING1 / RFU, TRMT61B / Fold change vs veh, TRMT61B / RFU, FUBP3 / Fold change vs veh, FUBP3 / RFU, TP53 / Fold change vs veh, TP53 / RFU, TNKS2 / Fold change vs veh, TNKS2 / RFU, ZFP14 / Fold change vs veh, ZFP14 / RFU, ACTR2 / Fold change vs veh, ACTR2 / RFU, PPP3R1 / Fold change vs veh, PPP3R1 / RFU, PIK3R1 / Fold change vs veh, PIK3R1 / RFU, HNRNPA1 / Fold change vs veh, HNRNPA1 / RFU, RNF170 / Fold change vs veh, RNF170 / RFU, ZNF28 / Fold change vs veh, ZNF28 / RFU, RNGTT / Fold change vs veh, RNGTT / RFU, OGT / Fold change vs veh, OGT / RFU, BRD1 / Fold change vs veh, BRD1 / RFU, MARS / Fold change vs veh, MARS / RFU, ZNF655 / Fold change vs veh, ZNF655 / RFU, FAHD1 / Fold change vs veh, FAHD1 / RFU, BDP1 / Fold change vs veh, BDP1 / RFU, LRRCC1 / Fold change vs veh, LRRCC1 / RFU, ARID1A / Fold change vs veh, ARID1A / RFU, ZNF146 / Fold change vs veh, ZNF146 / RFU, ZNF330 / Fold change vs veh, ZNF330 / RFU, GPN3 / Fold change vs veh, GPN3 / RFU, C9orf123 / Fold change vs veh, C9orf123 / RFU, N4BP2L2 / Fold change vs veh, N4BP2L2 / RFU, ARFIP1 / Fold change vs veh, ARFIP1 / RFU, FAM179B / Fold change vs veh, FAM179B / RFU, BCL10 / Fold change vs veh, BCL10 / RFU, UHRF1BP1L / Fold change vs veh, UHRF1BP1L / RFU, BET1 / Fold change vs veh, BET1 / RFU, CNOT2 / Fold change vs veh, CNOT2 / RFU, ZNF268 / Fold change vs veh, ZNF268 / Fold change vs veh, ZNF507 / RFU, DGCR2 / Fold change vs veh, DGCR2 / RFU, WDSUB1 / Fold change vs veh, WDSUB1 / Fold change vs veh, HSP90B1 /// MIR3652 / RFU, ADSS / Fold change vs veh, ADSS / RFU, GK / Fold change vs veh, GK / RFU, ZNF148 / Fold change vs veh, ZNF148 / RFU, TAF9 / Fold change vs veh, TAF9 / RFU, SLC1A5 / Fold change vs veh, SLC1A5 / RFU, SLMO2 / Fold change vs veh, SLMO2 / RFU, ABCC4 / Fold change vs veh, ABCC4 / RFU, LOC101060439 /// RAP1B / Fold change vs veh, LOC101060439 /// RAP1B / RFU, RFX7 / Fold change vs veh, RFX7 / RFU, GTPBP10 / Fold change vs veh, GTPBP10 / RFU, CNEP1R1 / Fold change vs veh, CNEP1R1 / RFU, BIVM-ERCC5 /// ERCC5 / Fold change vs veh, BIVM-ERCC5 /// ERCC5 / RFU, ILF3 / Fold change vs veh, ILF3 / RFU 11762660_at / Fold change /veh 11762660_at / RFU VCAN (11757783_s_at) / Fold change /veh VCAN (11757783_s_at) / RFU DDX43 (11728927_at) / Fold change /veh DDX43 (11728927_at) / RFU KRT8 (11758188_x_at) / Fold change /veh KRT8 (11758188_x_at) / RFU NKD1 (11759106_at) / Fold change /veh NKD1 (11759106_at) / RFU SRD5A1 (11742802_a_at) / Fold change /veh SRD5A1 (11742802_a_at) / RFU TPSAB1 /// TPSB2 (11721975_s_at) / Fold change /veh TPSAB1 /// TPSB2 (11721975_s_at) / RFU GSTM3 (11746129_a_at) / Fold change /veh GSTM3 (11746129_a_at) / RFU IL23R (11737362_x_at) / Fold change /veh IL23R (11737362_x_at) / RFU TMEM51 (11727254_a_at) / Fold change /veh TMEM51 (11727254_a_at) / RFU PIWIL2 (11732686_x_at) / Fold change /veh PIWIL2 (11732686_x_at) / RFU ORM1 (11744905_x_at) / Fold change /veh ORM1 (11744905_x_at) / RFU CCDC152 (11743942_at) / Fold change /veh CCDC152 (11743942_at) / RFU ECM1 (11717891_a_at) / Fold change /veh ECM1 (11717891_a_at) / RFU IL23R (11748794_a_at) / Fold change /veh IL23R (11748794_a_at) / RFU TNFAIP8L3 (11732012_x_at) / Fold change /veh TNFAIP8L3 (11732012_x_at) / RFU MBOAT4 (11741988_at) / Fold change /veh MBOAT4 (11741988_at) / RFU 11764193_at / Fold change /veh 11764193_at / RFU TMEM53 (11763286_at) / Fold change /veh TMEM53 (11763286_at) / RFU MAGEB2 (11727129_at) / Fold change /veh MAGEB2 (11727129_at) / RFU TMEM200A (11744735_a_at) / Fold change /veh TMEM200A (11744735_a_at) / RFU CCDC152 (11751479_a_at) / Fold change /veh CCDC152 (11751479_a_at) / RFU FAM211A (11726209_a_at) / Fold change /veh FAM211A (11726209_a_at) / RFU RGS16 (11746705_a_at) / Fold change /veh RGS16 (11746705_a_at) / RFU VCAN (11755009_s_at) / Fold change /veh VCAN (11755009_s_at) / RFU RHOB (11743442_s_at) / Fold change /veh RHOB (11743442_s_at) / RFU RGS16 (11720943_a_at) / Fold change /veh RGS16 (11720943_a_at) / RFU RGS16 (11720944_at) / Fold change /veh RGS16 (11720944_at) / RFU, VPS4B / Fold change vs veh, VPS4B / RFU, CREB1 / Fold change vs veh, CREB1 / RFU, DNAJC13 / Fold change vs veh, DNAJC13 / RFU, GNAQ / Fold change vs veh, GNAQ / RFU, CDK5R1 / Fold change vs veh, CDK5R1 / RFU, ZRANB3 / Fold change vs veh, ZRANB3 / RFU, CUL4A / Fold change vs veh, CUL4A / RFU, CCNY / Fold change vs veh, CCNY / RFU, UFL1 / Fold change vs veh, UFL1 / RFU, COG3 / Fold change vs veh, COG3 / RFU, DIAPH2 / Fold change vs veh, DIAPH2 / RFU, SKA2 / Fold change vs veh, SKA2 / RFU, AFF3 / Fold change vs veh, AFF3 / RFU, LMF1 / Fold change vs veh, LMF1 / RFU, IPO11 / Fold change vs veh, IPO11 / RFU, DFFB / Fold change vs veh, DFFB / RFU, FOXP1 / Fold change vs veh, FOXP1 / RFU, CARD8 / Fold change vs veh, CARD8 / RFU, STRN3 / Fold change vs veh, STRN3 / RFU, ADK / Fold change vs veh, ADK / RFU, RASSF2 / Fold change vs veh, RASSF2 / RFU, WIPF1 / Fold change vs veh, WIPF1 / RFU, LARP1B / Fold change vs veh, LARP1B / RFU, RASA1 / Fold change vs veh, RASA1 / RFU, RB1 / Fold change vs veh, RB1 / RFU, PPFIA1 / Fold change vs veh, PPFIA1 / RFU, MAT2A / Fold change vs veh, MAT2A / RFU, CCT5 / Fold change vs veh, CCT5 / RFU, WDR92 / Fold change vs veh, WDR92 / RFU, CUX1 / Fold change vs veh, CUX1 / RFU, TTC7A / Fold change vs veh, TTC7A / RFU, TMEM135 / Fold change vs veh, TMEM135 / RFU, DEPTOR / Fold change vs veh, DEPTOR / RFU, CPM / Fold change vs veh, CPM / RFU, DNAJB6 / Fold change vs veh, DNAJB6 / RFU, CACNA2D3 / Fold change vs veh, CACNA2D3 / RFU, DTX4 / Fold change vs veh, DTX4 / RFU, TFCP2 / Fold change vs veh, TFCP2 / RFU, GMCL1 /// GMCL1P1 / Fold change vs veh, GMCL1 /// GMCL1P1 / RFU, AEBP2 / Fold change vs veh, AEBP2 / RFU, SNHG1 /// SNORD22 /// SNORD25 /// SNORD26 /// SNORD27 /// SNORD28 /// SNORD29 /// SNORD31 / Fold change vs veh, SNHG1 /// SNORD22 /// SNORD25 /// SNORD26 /// SNORD27 /// SNORD28 /// SNORD29 /// SNORD31 / Fold change (Aza/veh), C12orf56 (ProbeSet 11735607_a_at) / Fold change (ACY-1035/veh), C12orf56 (ProbeSet 11735607_a_at) / Fold change (Aza/veh), FGFR1OP (ProbeSet 11751329_s_at) / Fold change (ACY-1035/veh), FGFR1OP (ProbeSet 11751329_s_at) / Fold change (Aza/veh), VPS36 (ProbeSet 11739960_a_at) / Fold change (ACY-1035/veh), VPS36 (ProbeSet 11739960_a_at) / RFU SYPL1 (11715823_x_at) / Fold change /veh SYPL1 (11715823_x_at) / RFU IGFBP7 (11715501_s_at) / Fold change /veh IGFBP7 (11715501_s_at) / RFU REEP3 (11722064_at) / Fold change /veh REEP3 (11722064_at) / RFU IGLL1 (11728026_x_at) / Fold change /veh IGLL1 (11728026_x_at): dose or concentration left out as unconfirmed
Details: ProbeSet 11717702_a_at; LIST D

In the case of `Nc1ncn([C@@H]2O[C@H](CO)[C@@H](O)[C@H]2O)c(=O)n1` [azacitidine], the “Fold change vs veh, RB1” value was 0.73.
